Data: patent US20220340875A1, “METHODS OF CULTURING AND/OR EXPANDING STEM CELLS AND/OR LINEAGE COMMITTED PROGENITOR CELLS USING AMIDO COMPOUNDS” (IDEAYA BIOSCIENCES, INC., priority 2018, published 2022)

Target: T1, hAhR (Homo sapiens, UniProt P35869)
T1 construct: Stably integrated DRE-luciferase cell lines were generated by transducing the both cell lines with Cignal XRE luciferase reporter (Qiagen) lentiviral particles; endogenous in cells
T1 sequence (P35869 11-848): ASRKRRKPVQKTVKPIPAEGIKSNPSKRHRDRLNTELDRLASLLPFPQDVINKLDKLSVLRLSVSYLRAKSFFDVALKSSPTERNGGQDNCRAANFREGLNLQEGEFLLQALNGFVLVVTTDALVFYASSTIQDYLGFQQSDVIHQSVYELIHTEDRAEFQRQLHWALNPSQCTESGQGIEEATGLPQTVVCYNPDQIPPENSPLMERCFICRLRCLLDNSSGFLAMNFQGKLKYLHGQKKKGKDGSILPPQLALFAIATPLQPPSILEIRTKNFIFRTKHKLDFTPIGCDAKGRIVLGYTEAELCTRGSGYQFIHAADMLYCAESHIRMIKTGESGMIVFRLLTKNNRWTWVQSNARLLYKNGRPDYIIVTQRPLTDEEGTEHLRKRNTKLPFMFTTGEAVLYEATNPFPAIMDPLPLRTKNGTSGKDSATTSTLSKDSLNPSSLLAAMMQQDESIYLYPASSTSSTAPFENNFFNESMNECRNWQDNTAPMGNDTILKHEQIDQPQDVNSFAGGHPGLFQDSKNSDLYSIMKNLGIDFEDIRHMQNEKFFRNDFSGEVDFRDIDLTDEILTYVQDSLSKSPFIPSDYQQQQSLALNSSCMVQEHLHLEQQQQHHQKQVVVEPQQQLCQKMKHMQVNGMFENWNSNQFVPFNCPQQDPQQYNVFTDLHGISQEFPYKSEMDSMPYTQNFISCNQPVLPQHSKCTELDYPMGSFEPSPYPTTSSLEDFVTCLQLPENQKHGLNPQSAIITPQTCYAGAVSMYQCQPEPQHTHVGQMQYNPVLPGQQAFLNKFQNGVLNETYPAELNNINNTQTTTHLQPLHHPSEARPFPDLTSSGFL
Assay: AhR DRE-luciferase reporter transcriptional assay, antagonist mode (TCDD-induced)
Assay type: cell-based
Conditions: HEPG2 DRE-Luc cells, 3 nM TCDD, 24 hour incubation, relative IC50
Summary of the method: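 HepG2 cells carrying a stably integrated DRE-luciferase reporter, in OptiMEM with 0.5% FBS; semi-log compound doses added with 3 nM TCDD, 24 h incubation, firefly luciferase read-out. Percent maximal activity normalised between vehicle ± TCDD; relative IC50 taken as half-reduction between curve plateaus.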

| IC50 [nM] | Compound |
| --- | --- |
| < 200 | Cc1cc(-c2ccc3nc(C(F)(F)F)cc(C)c3n2)ccc1N(C)C(=O)c1ccnn1CCO [Example 223, 1-(2-hydroxyethyl)-N-methyl-N-[2-methyl-4-[8-methyl-6-(trifluoromethyl)-1,5-naphthyridin-2-yl]phenyl]-1H-pyrazole-5-carboxamide] |
| < 200 | Cc1cc(C(F)(F)F)nc2cnc(-c3ccc(N(C)C(=O)c4ccnn4C)c(F)c3)nc12 [Example 162, N-(2-fluoro-4-(8-methyl-6-(trifluoromethyl)pyrido[3,2-d]pyrimidin-2-yl)-phenyl)-N,1-dimethyl-1H-pyrazole-5-carboxamide] |
| 200 to 500 | Cc1cc(-c2ncc3ccn(CC(F)(F)F)c3n2)ccc1NC(=O)c1ccnn1C [Example 091, 1-Methyl-N-(2-methyl-4-(7-(2,2,2-trifluoroethyl)-7H-pyrrolo[2,3-d]pyrimidin-2-yl)phenyl)-1H-pyrazole-5-carboxamide] |
| < 200 | Cc1cc(N(C)C(=O)c2ccnn2C)c(C)cc1-c1ncc2nc(C(F)(F)F)ccc2n1 [Example 188, N-(2,5-dimethyl-4-(6-(trifluoromethyl)pyrido[3,2-d]pyrimidin-2-yl)phenyl)-N,1-dimethyl-1H-pyrazole-5-carboxamide] |
| 1000 to 10000 | Cc1cc(-c2ccc3cnccc3n2)ccc1NC(=O)c1ccnn1C [Example 013, 1-methyl-N-(2-methyl-4-(1,6-naphthyridin-2-yl)phenyl)-1H-pyrazole-5-carboxamide] |
| < 200 | Cc1cc(-c2ncc3nc(C(F)(F)F)cc(C)c3n2)ccc1NC(=O)c1ccnc(C(N)=O)c1 [Example 166, N4-(2-methyl-4-(8-methyl-6-(trifluoromethyl)pyrido[3,2-d]pyrimidin-2-yl)phenyl)pyridine-2,4-dicarboxamide] |
| < 200 | Cc1cc(-c2ccc3cc(C(F)(F)F)cc(C)c3n2)ccc1N(C)C(=O)c1ccnn1C [Example 202, N,1-dimethyl-N-(2-methyl-4-(8-methyl-6-(trifluoromethyl)quinolin-2-yl)phenyl)-1H-pyrazole-5-carboxamide] |
| < 200 | Cc1cc(-c2ncc3nc(C(F)(F)F)cc(C)c3n2)c(F)cc1N(C)C(=O)c1ccnn1C [Example 181, N-(5-fluoro-2-methyl-4-(8-methyl-6-(trifluoromethyl)pyrido[3,2-d]pyrimidin-2-yl)phenyl)-N,1-dimethyl-1H-pyrazole-5-carboxamide] |
| 500 to 1000 | Cc1cc(-c2ccc3cc(F)ccc3n2)ccc1NC(=O)c1ccno1 [Example 037, N-(4-(6-fluoroquinolin-2-yl)-2-methylphenyl)isoxazole-5-carboxamide] |
| 500 to 1000 | Cc1cc(-c2ccc3cc(F)ccc3n2)ccc1NC(=O)c1cccnn1 [Example 031, N-(4-(6-fluoroquinolin-2-yl)-2-methylphenyl)pyridazine-3-carboxamide] |
| 500 to 1000 | Cc1cc(-c2ncc3cc(C(F)(F)F)ccc3n2)ccc1NC(=O)c1ncccc1C [Example 117, 3-methyl-N-(2-methyl-4-(6-(trifluoromethyl)quinazolin-2-yl)phenyl)picolinamide] |
| < 200 | [2H]C([2H])([2H])N(C(=O)c1ccnn1C)c1ccc(-c2ccc3cc(C(F)(F)F)ccc3n2)cc1C [Example 212, 1-methyl-N-(methyl-d3)-N-(2-methyl-4-(6-(trifluoromethyl)quinolin-2-yl)phenyl)-1H-pyrazole-5-carboxamide] |
| < 200 | Cc1cc(-c2ccc3cc(C(F)(F)F)ccc3n2)ccc1N(C)C(=O)c1ccnn1C [Example 002, N,1-Dimethyl-N-(2-methyl-4-(6-(trifluoromethyl)quinolin-2-yl)phenyl)-1H-pyrazole-5-carboxamide] |
| 200 to 500 | Cc1cc(-c2ncc3cc(C(F)(F)F)ccc3n2)ccc1N(C)C(=O)c1ncccc1C [Example 118, N,3-dimethyl-N-(2-methyl-4-(6-(trifluoromethyl)quinazolin-2-yl)phenyl)picolinamide] |
| 1000 to 10000 | Cc1cc(-c2ccc3cc(F)ccc3n2)ccc1NC(=O)c1cn(C)cn1 [Example 035, N-(4-(6-fluoroquinolin-2-yl)-2-methylphenyl)-1-methyl-1H-imidazole-4-carboxamide] |
| 200 to 500 | Cc1cc(-c2ccc3cc(OC(F)(F)F)ccc3n2)ccc1NC(=O)c1ccnn1C [Example 011, 1-methyl-N-(2-methyl-4-(6-(trifluoromethoxy)quinolin-2-yl)phenyl)-1H-pyrazole-5-carboxamide] |

| IC50 [nM] | Compound |
| --- | --- |
| < 200 | Cc1cc(C(F)(F)F)nc2cnc(-c3ccc(NC(=O)c4ccnn4C)c(F)c3)nc12 [Example 163, N-[2-fluoro-4-[8-methyl-6-(trifluoromethyl)pyrido[3,2-d]pyrimidin-2-yl]phenyl]-1-methyl-1H-pyrazole-5-carboxamide] |
| 200 to 500 | Cn1nccc1C(=O)Nc1ccc(-c2ccc3cc(C(F)(F)F)ccc3n2)cc1F [Example 077, N-(2-fluoro-4-(6-(trifluoromethyl)quinolin-2-yl)phenyl)-1-methyl-1H-pyrazole-5-carboxamide] |
| 200 to 500 | COC(=O)Nc1ccc(-c2ccc3cc(F)ccc3n2)cc1C [Example 024, methyl (4-(6-fluoroquinolin-2-yl)-2-methylphenyl)carbamate] |
| < 200 | Cc1cc(-c2ncc3nc(C(F)(F)F)cc(C)c3n2)ccc1NC(=O)c1ccnn1CC(N)=O [Example 170, 1-(2-amino-2-oxoethyl)-N-(2-methyl-4-(8-methyl-6-(trifluoromethyl)-pyrido[3,2-d]pyrimidin-2-yl)phenyl)-1H-pyrazole-5-carboxamide] |
| 1000 to 10000 | Cc1cc(-c2ccc3cc(C(F)(F)F)ccc3n2)ccc1NC(=O)c1ccn[nH]1 [Example 204, N-[2-methyl-4-[6-(trifluoromethyl)quinolin-2-yl]phenyl]-1H-pyrazole-5-carboxamide] |
| < 200 | Cc1cc(-c2ncc3cc(C(F)(F)F)ccc3n2)ccc1NC(=O)c1ccnc(C(N)=O)c1 [Example 151, N4-(2-methyl-4-(6-(trifluoromethyl)quinazolin-2-yl)phenyl)pyridine-2,4-dicarboxamide] |
| < 200 | CNC(=O)c1cc(C(=O)Nc2ccc(-c3ncc4nc(C(F)(F)F)cc(C)c4n3)cc2C)ccn1 [Example 167, N2-methyl-N4-(2-methyl-4-(8-methyl-6-(trifluoromethyl)pyrido[3,2-d]pyrimidin-2-yl)phenyl)pyridine-2,4-dicarboxamide] |
| < 200 | Cc1cc(-c2ncc3ccc(C(F)(F)F)cc3n2)ccc1NC(=O)c1ccnn1C [Example 108, 1-methyl-N-(2-methyl-4-(7-(trifluoromethyl)quinazolin-2-yl)phenyl)-1H-pyrazole-5-carboxamide] |
| < 200 | Cc1cc(-c2ccc3nc(C(F)(F)F)ccc3n2)ccc1NC(=O)c1ccnn1C [Example 102, 1-methyl-N-(2-methyl-4-(6-(trifluoromethyl)-1,5-naphthyridin-2-yl)phenyl)-1H-pyrazole-5-carboxamide] |
| < 200 | Cc1cc(C(=O)N(C)c2ccc(-c3ncc4cc(C(F)(F)F)ccc4n3)cc2C)ccn1 [Example 120, N,2-dimethyl-N-(2-methyl-4-(6-(trifluoromethyl)quinazolin-2-yl)phenyl)isonicotinamide] |
| 200 to 500 | Cc1c(-c2ncc3cc(C(F)(F)F)ccc3n2)ccc(NC(=O)c2ccnn2C)c1F [Example 113, N-(2-fluoro-3-methyl-4-(6-(trifluoromethyl)quinazolin-2-yl)phenyl)-1-methyl-1H-pyrazole-5-carboxamide] |
| 1000 to 10000 | Cc1cc(-c2ccc3cc(N)ccc3n2)ccc1NC(=O)c1ccnn1C [Example 075, N-(4-(6-aminoquinolin-2-yl)-2-methylphenyl)-1-methyl-1H-pyrazole-5-carboxamide] |
| < 200 | Cc1cc(-c2ccc3cc(F)cc(C)c3n2)ccc1NC(=O)c1ccnn1C [Example 052, N-(4-(6-fluoro-8-methylquinolin-2-yl)-2-methylphenyl)-1-methyl-1H-pyrazole-5-carboxamide] |
| 500 to 1000 | Cc1cc(-c2ccc3cc(C(F)(F)F)ccc3n2)ccc1N(C)C(=O)c1ccn[nH]1 [Example 205, N-methyl-N-[2-methyl-4-[6-(trifluoromethyl)quinolin-2-yl]phenyl]-1H-pyrazole-5-carboxamide] |
| < 200 | Cn1nccc1C(=O)Nc1ccc(-c2ccc3nc(C(F)(F)F)ccc3n2)cc1F [Example 103, N-(2-fluoro-4-(6-(trifluoromethyl)-1,5-naphthyridin-2-yl)phenyl)-1-methyl-1H-pyrazole-5-carboxamide] |
| 500 to 1000 | Cc1cc(-c2ccc3nc(C(F)(F)F)ncc3n2)ccc1NC(=O)c1ccnn1C [Example 139, 1-methyl-N-(2-methyl-4-(2-(trifluoromethyl)pyrido[3,2-d]pyrimidin-6-yl)phenyl)-1H-pyrazole-5-carboxamide] |
